Data from patent publication US11098040B2, “Compounds and methods of use” (Ferro Therapeutics, Inc., priority 2018, dated 2021).
Read-outs that look alike come from different tables or passages of the source.

Columns and labels:
MCF-10A = test: Cell viability assay (CellTiter Glo), non-tumorigenic breast epithelial cell line MCF-10A; format: cell-based; settings: Homo sapiens, 96 hours
Protocol: (§1) Cell viability assay was performed to assess the potency of the compounds in human cancer cell lines KP4 (pancreatic ductal adenocarcinoma), MiaPaCa-2 (pancreatic carcinoma), AsPC-1 (pancreatic adenocarcinoma, ascites), 143B (osteosarcoma), and SJSA-1 (osteosarcoma). Selected compounds were also assayed in a human breast epithelial cell line MCF-10A, a nontumorigenic cell line as a control to assess differential activity. Cells at a density of 500-5,000 cells/well were seeded in 96-well plates and incubated at 37° C. overnight. A series of 9 different concentrations of compound stocks (500×) were created by 3-fold serial dilution in DMSO. These compounds were further diluted in culture media and then added to cells so that the final DMSO concentration was equal to 0.25% or less. After 96 hours of incubation, 50 μL of CellTiter Glo reagent (Promega) was added to each well and luminescence was measured after 10 minutes using EnVision (PerkinElmer). Compounds titrated from top concentration of up to 30 μM. The select compounds were tested initially from 30 μM as the top concentration in duplicates (range of 4.6 nM-30 μM). […] Luminescence from cells treated with DMSO alone was set as Max and % of inhibition was calculated as follows: Inhibition %=(Max-Sample value)/Max*100. Data was analyzed using XL-fit software (ID Business Solutions Ltd.). IC50, relative IC50, or % of top inhibition was calculated.
Paclitaxel was used as the positive control for cytotoxicity.

AsPC-1 = test: Cell viability assay (CellTiter Glo), pancreatic adenocarcinoma AsPC-1; format: cell-based; settings: Homo sapiens, ASPC1; pancreatic adenocarcinoma, ascites, 96 hours, CellTiter Glo; read-out: IC50 AsPC-1
Protocol: as §1
(§2) The results of the assay in the pancreatic cell lines are given in Table 15a for PANC1, Table 15b for MiaPaCa-2, and Table 15c for AsPC-1.

[1] = PK profile, IV plasma concentration and PK parameters; format: in vivo; settings: Balb/C nude, mouse, iv, 5 mg/kg, 30% Kolliphore EL with 1% poloxamar 407 in water; for AUC(0-t): read-out: AUC0-t; for AUC(0-inf): read-out: AUC0-∞
Protocol: The PK profiles of compounds 148, 149, 150, 156 and 169 are shown below. Compound 156 was formulated in 30% Kolliphor EL (Cremophor EL) in water and compounds 148, 149, 150 and 169 were formulated in 30% Kolliphore EL with 1% poloxamar 407 in water. All compounds were dosed at 5 mg/kg. Blood samples were collected at various time points and analyzed using the method described above.

SJSA-1 [2] = test: Cell proliferation (Alamar Blue) assay, SJSA-1 osteosarcoma, with/without ferrostatin; format: cell-based, human; settings: Homo sapiens
Procedure, shortened: (§3)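 Cells seeded at 5000/well, 16-24 h, then exposed 24 h at 37° C to compound, 10-0.0005 μM in 3-fold dilutions, 1% DMSO final. Alamar Blue fluorescence (ex 540/em 590 nm) read after 1.5 h; IC50 from variable-slope sigmoidal fit.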

786-O = test: Cell proliferation (Alamar Blue) assay, 786-O renal cell carcinoma, with/without ferrostatin; format: cell-based; settings: Homo sapiens
Procedure, shortened: as §3

A431 = test: Cell proliferation (Alamar Blue) assay, A431; format: cell-based; settings: Homo sapiens, A-431; Cell Line A431
Protocol: Cells (SJSA-1, 786-O and A431) were seeded (5000 cells/100 μL/well) in 96-well tissue culture plate and incubated at 37° C./5% CO2 for 16-24 hours. The cells were then treated with compounds (25 μL of 5×). The compound concentrations were 10-0.0005 μM prepared in 3-fold serial dilutions with final DMSO concentration of 1%. The plates were then incubated for 24 h at 37° C./5% CO2 in a moist environment. Then Alamar Blue™ reagent (final concentration 1×-12.5 μL) was added to each well and incubated for 1.5 hours at 37° C./5% CO2. The plates were read on fluorescence reader at 540 nm excitation and 590 nm emission wavelengths. The IC50 values were subsequently determined using a sigmoidal dose-response curve (variable slope) in GraphPad Prism® 5 software.
The cell proliferation assays for the compounds shown Table 25 was performed according to the protocols described herein, including Examples 4 and 6.

A549 = test: Cell viability assay, A549 cells; format: cell-based; settings: Homo sapiens, A549, Cell Line A549; read-out: IC50
Procedure, shortened: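 Growth of A549 cells was assessed with a cell viability assay. Cells were plated at 1,000-10,000 cells/well in 96-well plates and incubated overnight at 37° C. Nine-point 3-fold DMSO dilutions, starting from 30 μM and run in duplicate, were diluted into media (final DMSO 0.25% or less). After 96 hours, CellTiter Glo luminescence was read, inhibition was calculated against DMSO controls, and IC50 was fitted in XL-fit.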

MiaPaCa-2 = test: Cell viability assay (CellTiter Glo), pancreatic carcinoma MiaPaCa-2; format: cell-based; settings: Homo sapiens, MIA PaCa-2; pancreatic carcinoma, 96 hours, CellTiter Glo; read-out: IC50 MiaPaCa-2
Protocol: as §1, §2

SJSA-1 [3] = test: Cell viability assay (CellTiter Glo), osteosarcoma SJSA-1; format: cell-based; settings: Homo sapiens, 96 hours
Protocol: as §1
The results of the assay in sarcoma cell lines are given in Table 21a for HT-1080 luc2 (fibrosarcoma expressing a luciferase gene), Table 21b for 143B (osteosarcoma), and Table 21c for SJSA-1 (osteosarcoma).

[4] = SJSA-1, Cell Line SJSA-1, read-out: IC50
[5] = 786-0, Cell Line 786-O, read-out: IC50
[6] = SJSA-1, 24 h, Alamar Blue, 24 h, 2 μM ferrostatin, read-out: SJSA-1 (IC50, μM) 2 μM Ferrostatin
[7] = SJSA-1, 24 h, Alamar Blue, 24 h, without ferrostatin, read-out: SJSA-1 (IC50, μM) Without Ferrostatin
[8] = 786-0, 24 h, Alamar Blue, 24 h, 2 μM ferrostatin, read-out: 786-O (IC50, μM) 2 μM Ferrostatin
[9] = 786-0, 24 h, Alamar Blue, 24 h, without ferrostatin, read-out: 786-O (IC50, μM) Without Ferrostatin

## COC(=O)[C@H]1Cc2c([nH]c3ccccc23)[C@H](c2ccc(C(=O)OCC34CC(F)(C3)C4)cc2)N1C(=O)CCl [Compound 76]
MCF-10A
  IC50: 1.11 µM
AsPC-1
  IC50: 35 nM

## C#CC(=O)N1[C@@H](CCCC)Cc2c([nH]c3ccccc23)[C@@H]1c1ccc(NC23CC4CC(CC(C4)C2)C3)cc1 [Compound 148, 1-((1 S,3S)-1-(4-(((3R,5R,7R)-adamantan-1-yl)amino)phenyl)-3-butyl-1,3,4,9-tetrahydro-2H-pyrido[3,4-b]indol-2-yl)prop-2-yn-1-one]
[1]
  C0: 40600 ng/mL
  Cmax: 33000 ng/mL
  clearance: 4.79 mL/min/kg
  AUC(0-t): 17200 ng·h/mL
  AUC(0-inf): 17400 ng·h/mL
[1]; read-out: Vd
  Vd: 2.39 L/kg
[1]; read-out: Vss
  Vd: 0.47 L/kg
[1]; time points considered 4-24 h
  half-life: 346 min
SJSA-1 [2]; [4]
  IC50: 0.008 µM
786-O; [5]
  IC50: 0.006 µM
A431
  IC50: 3.6 µM

## CCCC[C@H]1Cc2c([nH]c3ccccc23)[C@H](c2ccc(NC34CC5CC(CC(C5)C3)C4)cc2)N1C(=O)CCl [Compound 149, 1-((1S,3S)-1-(4-(((3R,5R,7R)-adamantan-1-yl)amino)phenyl)-3-butyl-1,3,4,9-tetrahydro-2H-pyrido[3,4-b]indol-2-yl)-2-chloroethan-1-one]
[1]
  C0: 29400 ng/mL
  Cmax: 22000 ng/mL
  clearance: 13 mL/min/kg
  AUC(0-t): 6540 ng·h/mL
  AUC(0-inf): 6550 ng·h/mL
[1]; read-out: Vd
  Vd: 2.34 L/kg
[1]; read-out: Vss
  Vd: 0.53 L/kg
[1]; time points considered 2-8 h
  half-life: 127 min
SJSA-1 [2]; [4]
  IC50: 0.002 µM
786-O; [5]
  IC50: 0.001 µM
A431
  IC50: 3.8 µM

## CCCC[C@H]1Cc2c([nH]c3ccccc23)[C@H](c2ccc(S(=O)(=O)NC3CC3)cc2F)N1C(=O)CCl [Compound 169, 4-((1S,3S)-3-butyl-2-(2-chloroacetyl)-2,3,4,9-tetrahydro-1H-pyrido[3,4-b]indol-1-yl)-N-cyclopropyl-3-fluorobenzenesulfonamide]
[1]
  C0: 5380 ng/mL
  Cmax: 2220 ng/mL
  clearance: 109 mL/min/kg
  AUC(0-t): 760 ng·h/mL
  AUC(0-inf): 762 ng·h/mL
[1]; read-out: Vd
  Vd: 2.39 L/kg
[1]; read-out: Vss
  Vd: 0.98 L/kg
[1]; time points considered 0.25-2 h (1 h excluded)
  half-life: 15 min
SJSA-1 [2]; [6]
  IC50: > 10 µM
SJSA-1 [2]; [7]
  IC50: 0.001 µM
SJSA-1 [2]; [4]
  IC50: 0.001 µM
786-O; [8]
  IC50: 4.96 µM
786-O; [9]
  IC50: 0.003 µM
786-O; [5]
  IC50: 0.003 µM
A431
  IC50: 3.9 µM

## C[C@H]1Cc2c([nH]c3ccccc23)[C@H](c2ccc(C(=O)NC3CCC3)nc2)N1C(=O)CCl [Compound 214, 5-((1S,3S)-2-(2-chloroacetyl)-3-methyl-2,3,4,9-tetrahydro-1H-pyrido[3,4-b]indol-1-yl)-N-cyclobutylpicolinamide]
SJSA-1 [2]; [6]
  IC50: 4.15 µM
SJSA-1 [2]; [7]
  IC50: 0.03 µM
SJSA-1 [2]; [4]
  IC50: 0.03 µM
786-O; [8]
  IC50: 4.72 µM
786-O; [9]
  IC50: 0.019 µM
786-O; [5]
  IC50: 0.019 µM
A431
  IC50: 1.58 µM

## CC1CN(c2ccc([C@H]3c4[nH]c5ccccc5c4C[C@H](C)N3C(=O)CCl)cc2)CCO1 (stereo partly shown) [Compound 215]
SJSA-1 [2]; [6]
  IC50: 9.41 µM
SJSA-1 [2]; [7]
  IC50: 0.028 µM
SJSA-1 [2]; [4]
  IC50: 0.028 µM
786-O; [8]
  IC50: 9.88 µM
786-O; [9]
  IC50: 0.018 µM
786-O; [5]
  IC50: 0.018 µM
A431
  IC50: 8.22 µM

## COC[C@H]1Cc2c([nH]c3ccccc23)[C@H](c2ccc(N3CCOCC3)cc2)N1C(=O)CCl [Compound 232]
SJSA-1 [2]; [4]
  IC50: 0.045 µM
786-O; [5]
  IC50: 0.025 µM
A431
  IC50: > 10 µM

## C[C@H]1Cc2c([nH]c3ccccc23)[C@H](c2ccc(N3CCOCC3)cc2F)N1C(=O)CCl [Compound 233]
A549
  IC50: 1970 nM
SJSA-1 [2]; [4]
  IC50: 0.0443 µM
786-O; [5]
  IC50: 0.0337 µM
A431
  IC50: 4.8 µM

## Cc1cc(N2CCOCC2)ccc1[C@H]1c2[nH]c3ccccc3c2C[C@H](C)N1C(=O)CCl [Compound 234, 2-chloro-1-((1S,3S)-3-methyl-1-(2-methyl-4-morpholinophenyl)-1,3,4,9-tetrahydro-2H-pyrido[3,4-b]indol-2-yl)ethan-1-one]
A549
  IC50: 3250 nM
SJSA-1 [2]; [4]
  IC50: 3.92 µM
786-O; [5]
  IC50: 4.17 µM
A431
  IC50: 8 µM

## COC(=O)[C@H]1Cc2c([nH]c3ccccc23)[C@H](c2ccc(C(=O)N3CCOCC3)cc2)N1C(=O)CCl [Example 26]
MCF-10A
  IC50: 3.97 µM
MiaPaCa-2
  IC50: 52 nM
SJSA-1 [3]
  IC50: 339 nM

## COC(=O)[C@H]1Cc2c([nH]c3ccccc23)[C@H](c2ccc(C(=O)NCCN3CCOCC3)cc2)N1C(=O)CCl [Example 27]
MCF-10A
  IC50: 9.41 µM
MiaPaCa-2
  IC50: 466 nM
SJSA-1 [3]
  IC50: 1410 nM

## COC(=O)[C@H]1Cc2c([nH]c3ccccc23)[C@H](c2ccc(S(=O)(=O)N3CCC(O)CC3)cc2)N1C(=O)CCl [Example 35]
MCF-10A
  IC50: 4.15 µM
MiaPaCa-2
  IC50: 117 nM
SJSA-1 [3]
  IC50: 313 nM

## COC(=O)[C@H]1Cc2c([nH]c3ccccc23)[C@H](c2ccc(S(=O)(=O)N3CC(O)C3)cc2)N1C(=O)CCl [Example 37]
MCF-10A
  IC50: 5.46 µM
MiaPaCa-2
  IC50: 279 nM
SJSA-1 [3]
  IC50: 630 nM

## C=CCOC(=O)c1ccc([C@H]2c3[nH]c4ccccc4c3C[C@H](C(=O)OC)N2C(=O)CCl)cc1 [Example 74]
MCF-10A
  IC50: 6.56 µM
AsPC-1
  IC50: 107 nM

## COC(=O)[C@H]1Cc2c([nH]c3ccccc23)[C@H](c2ccc(C(=O)OCC3CC3)cc2)N1C(=O)CCl [Example 75]
MCF-10A
  IC50: 1.29 µM
AsPC-1
  IC50: 28 nM

## COC(=O)c1ccc([C@H]2c3[nH]c4ccccc4c3C[C@H](C)N2C(=O)CCl)cc1 [Example 77]
MCF-10A
  IC50: 0.89 µM
AsPC-1
  IC50: 74 nM

## COC(=O)[C@H]1Cc2c([nH]c3ccccc23)[C@H](c2ccc(C(=O)NCC3CC3)cc2)N1C(=O)CCl [Example 81]
MCF-10A
  IC50: 2.66 µM
AsPC-1
  IC50: 73 nM

## COC(=O)[C@H]1Cc2c([nH]c3ccccc23)[C@H](c2ccc(S(=O)(=O)NCC3CC3)cc2)N1C(=O)CCl [Example 82]
MCF-10A
  IC50: 3.74 µM
AsPC-1
  IC50: 61 nM

## COC(=O)[C@H]1Cc2c([nH]c3ccccc23)[C@H](c2ccc(C(=O)OCC3CCC3)cc2)N1C(=O)CCl [Example 85]
MCF-10A
  IC50: 0.5 µM
AsPC-1
  IC50: 29 nM
